Source: ChEMBL document CHEMBL4229332, “Novel multi-target azinesulfonamides of cyclic amine derivatives as potential antipsychotics with pro-social and pro-cognitive effects” (Eur J Med Chem, 2018)

How the values were obtained:
[1] = tested on: Cavia porcellus; assay: Cardiotoxicity in guinea pig assessed as effect on PR interval time at 5 mg/kg, ip measured after 70 mins by ECG analysis (reference value: 58.8 to 63.8 milliseconds); format: toxicity, organism-based; settings: in vivo
[2] = Ratio of drug level in brain to plasma in Wistar rat at 3 mg/kg, ip measured after 60 mins by LC-MS/MS analysis; format: ADME, organism-based; settings: read-out: BPR
[3] = tested on: Cavia porcellus; assay: Cardiotoxicity in guinea pig assessed as effect on frequence of heart rate at 5 mg/kg, ip measured after 40 mins by ECG analysis (reference value: 262 to 296 /min); format: toxicity, organism-based; settings: in vivo
[4] = tested on: Cavia porcellus; assay: Cardiotoxicity in guinea pig assessed as effect on QTc interval time at 5 mg/kg, ip measured after 20 mins by ECG analysis (reference value: […] to […] milliseconds); format: toxicity, organism-based; settings: in vivo
[5] = tested on: Cavia porcellus; assay: Cardiotoxicity in guinea pig assessed as effect on QTc interval time at 5 mg/kg, ip measured after 30 mins by ECG analysis (reference value: […] to […] milliseconds); format: toxicity, organism-based; settings: in vivo, 0.5 h
[6] = tested on: Cavia porcellus; assay: Cardiotoxicity in guinea pig assessed as effect on frequence of heart rate at 5 mg/kg, ip measured after 20 mins by ECG analysis (reference value: 262 to 296 /min); format: toxicity, organism-based; settings: in vivo
[7] = tested on: Cavia porcellus; assay: Cardiotoxicity in guinea pig assessed as effect on RR interval time at 5 mg/kg, ip measured after 60 mins by ECG analysis (reference value: 208.4 to 238.4 milliseconds); format: toxicity, organism-based; settings: in vivo, 1 h
[8] = tested on: Cavia porcellus; assay: Cardiotoxicity in guinea pig assessed as effect on QTc interval time at 5 mg/kg, ip measured after 70 mins by ECG analysis (reference value: […] to […] milliseconds); format: toxicity, organism-based; settings: in vivo
[9] = Drug level in Wistar rat brain at 3 mg/kg, ip measured after 60 mins by LC-MS/MS analysis; format: ADME, organism-based; settings: read-out: Drug uptake
[10] = tested on: Cavia porcellus; assay: Cardiotoxicity in guinea pig assessed as effect on QTc interval time at 5 mg/kg, ip measured after 10 mins by ECG analysis (reference value: […] to […] milliseconds); format: toxicity, organism-based; settings: in vivo
[11] = molecular target: T1, 5-hydroxytryptamine receptor 1A (Homo sapiens, UniProt P08908); assay: biochemical
T1 sequence (P08908 whole entry): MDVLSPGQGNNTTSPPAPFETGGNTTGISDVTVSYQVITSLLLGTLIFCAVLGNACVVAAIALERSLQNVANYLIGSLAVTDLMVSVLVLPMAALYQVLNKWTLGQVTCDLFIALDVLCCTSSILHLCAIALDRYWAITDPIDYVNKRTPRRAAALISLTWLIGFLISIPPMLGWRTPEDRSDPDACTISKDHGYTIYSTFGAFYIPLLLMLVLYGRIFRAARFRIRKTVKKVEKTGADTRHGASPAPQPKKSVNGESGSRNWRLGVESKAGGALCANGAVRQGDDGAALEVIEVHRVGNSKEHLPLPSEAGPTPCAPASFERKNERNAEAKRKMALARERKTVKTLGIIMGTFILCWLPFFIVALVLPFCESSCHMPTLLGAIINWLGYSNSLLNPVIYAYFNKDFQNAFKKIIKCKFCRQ
Description: Displacement of [3H]-8-OH-DPAT from human 5-HT1AR expressed in HEK293 cell membranes after 1 hr by microbeta counting method

[12] = tested on: Cavia porcellus; assay: Cardiotoxicity in guinea pig assessed as effect on QT interval time at 5 mg/kg, ip measured after 50 mins by ECG analysis (reference value: 127.6 to 131.2 milliseconds); format: toxicity, organism-based; settings: in vivo
[13] = tested on: Cavia porcellus; assay: Cardiotoxicity in guinea pig assessed as effect on frequence of heart rate at 5 mg/kg, ip measured after 60 mins by ECG analysis (reference value: 262 to 296 /min); format: toxicity, organism-based; settings: in vivo, 1 h
[14] = tested on: Cavia porcellus; assay: Cardiotoxicity in guinea pig assessed as effect on QRS interval time at 5 mg/kg, ip measured after 60 mins by ECG analysis (reference value: 26.2 to 31.6 milliseconds); format: toxicity, organism-based; settings: in vivo, 1 h
[15] = tested on: Cavia porcellus; assay: Cardiotoxicity in guinea pig assessed as effect on frequence of heart rate at 5 mg/kg, ip measured after 80 mins by ECG analysis (reference value: 262 to 296 /min); format: toxicity, organism-based; settings: in vivo
[16] = tested on: Cavia porcellus; assay: Cardiotoxicity in guinea pig assessed as effect on frequence of heart rate at 5 mg/kg, ip measured after 50 mins by ECG analysis (reference value: 262 to 296 /min); format: toxicity, organism-based; settings: in vivo
[17] = tested on: Cavia porcellus; assay: Cardiotoxicity in guinea pig assessed as effect on QT interval time at 5 mg/kg, ip measured after 60 mins by ECG analysis (reference value: 127.6 to 131.2 milliseconds); format: toxicity, organism-based; settings: in vivo, 1 h
[18] = molecular target: Voltage-gated inwardly rectifying potassium channel KCNH2 (Homo sapiens, UniProt Q12809); assay: Inhibition of human ERG expressed in CHOK1 cells at 10 to 50 uM by whole-cell patch clamp method; format: cell-based
[19] = tested on: Cavia porcellus; assay: Cardiotoxicity in guinea pig assessed as effect on RR interval time at 5 mg/kg, ip measured after 20 mins by ECG analysis (reference value: 208.4 to 238.4 milliseconds); format: toxicity, organism-based; settings: in vivo
[20] = tested on: Cavia porcellus; assay: Cardiotoxicity in guinea pig assessed as effect on frequence of heart rate at 5 mg/kg, ip measured after 10 mins by ECG analysis (reference value: 262 to 296 /min); format: toxicity, organism-based; settings: in vivo
[21] = Drug level in Wistar rat plasma at 3 mg/kg, ip measured after 60 mins by LC-MS/MS analysis; format: ADME, organism-based
[22] = tested on: Cavia porcellus; assay: Cardiotoxicity in guinea pig assessed as effect on RR interval time at 5 mg/kg, ip measured after 50 mins by ECG analysis (reference value: 208.4 to 238.4 milliseconds); format: toxicity, organism-based; settings: in vivo
[23] = tested on: Cavia porcellus; assay: Cardiotoxicity in guinea pig assessed as effect on QTc interval time at 5 mg/kg, ip measured after 60 mins by ECG analysis (reference value: […] to […] milliseconds); format: toxicity, organism-based; settings: in vivo, 1 h
[24] = tested on: Cavia porcellus; assay: Cardiotoxicity in guinea pig assessed as effect on PR interval time at 5 mg/kg, ip measured after 10 mins by ECG analysis (reference value: 58.8 to 63.8 milliseconds); format: toxicity, organism-based; settings: in vivo
[25] = tested on: Cavia porcellus; assay: Cardiotoxicity in guinea pig assessed as effect on QTc interval time at 5 mg/kg, ip measured after 80 mins by ECG analysis (reference value: […] to […] milliseconds); format: toxicity, organism-based; settings: in vivo
[26] = tested on: Cavia porcellus; assay: Cardiotoxicity in guinea pig assessed as effect on PR interval time at 5 mg/kg, ip measured after 20 mins by ECG analysis (reference value: 58.8 to 63.8 milliseconds); format: toxicity, organism-based; settings: in vivo
[27] = molecular target: Cytochrome P450 2D6 (Homo sapiens, UniProt P10635); assay: Inhibition of human supersome CYP2D6 using bufuralol as substrate assessed as bufuralol 1'-hydroxylation after 30 mins by HPLC-UV detection; format: ADME
[28] = tested on: Cavia porcellus; assay: Cardiotoxicity in guinea pig assessed as effect on RR interval time at 5 mg/kg, ip measured after 70 mins by ECG analysis (reference value: 208.4 to 238.4 milliseconds); format: toxicity, organism-based; settings: in vivo
[29] = tested on: Cavia porcellus; assay: Cardiotoxicity in guinea pig assessed as effect on QRS interval time at 5 mg/kg, ip measured after 50 mins by ECG analysis (reference value: 26.2 to 31.6 milliseconds); format: toxicity, organism-based; settings: in vivo
[30] = molecular target: 5-hydroxytryptamine receptor 2B (Homo sapiens) (UniProt P41595); assay: Agonist activity at human 5-HT2BR expressed in CHO cells assessed as induction of IP1 accumulation at 10^-6 M after 30 mins by HTRF method; format: functional, cell-based
Chain of 5-hydroxytryptamine receptor 2B (Homo sapiens) (P41595 whole entry): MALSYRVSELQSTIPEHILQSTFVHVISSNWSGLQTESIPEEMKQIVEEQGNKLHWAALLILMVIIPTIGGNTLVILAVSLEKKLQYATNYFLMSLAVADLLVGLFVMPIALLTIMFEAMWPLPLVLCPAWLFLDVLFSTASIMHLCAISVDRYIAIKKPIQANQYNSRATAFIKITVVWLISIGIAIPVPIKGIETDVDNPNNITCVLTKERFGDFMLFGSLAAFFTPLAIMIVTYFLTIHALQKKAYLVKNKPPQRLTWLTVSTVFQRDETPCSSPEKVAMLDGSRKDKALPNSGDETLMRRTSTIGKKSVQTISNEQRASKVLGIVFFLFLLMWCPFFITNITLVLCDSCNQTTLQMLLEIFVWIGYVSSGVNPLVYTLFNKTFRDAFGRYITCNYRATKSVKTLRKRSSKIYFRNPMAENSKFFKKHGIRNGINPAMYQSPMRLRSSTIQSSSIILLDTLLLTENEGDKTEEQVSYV

Chain of Voltage-gated inwardly rectifying potassium channel KCNH2 (Q12809 whole entry): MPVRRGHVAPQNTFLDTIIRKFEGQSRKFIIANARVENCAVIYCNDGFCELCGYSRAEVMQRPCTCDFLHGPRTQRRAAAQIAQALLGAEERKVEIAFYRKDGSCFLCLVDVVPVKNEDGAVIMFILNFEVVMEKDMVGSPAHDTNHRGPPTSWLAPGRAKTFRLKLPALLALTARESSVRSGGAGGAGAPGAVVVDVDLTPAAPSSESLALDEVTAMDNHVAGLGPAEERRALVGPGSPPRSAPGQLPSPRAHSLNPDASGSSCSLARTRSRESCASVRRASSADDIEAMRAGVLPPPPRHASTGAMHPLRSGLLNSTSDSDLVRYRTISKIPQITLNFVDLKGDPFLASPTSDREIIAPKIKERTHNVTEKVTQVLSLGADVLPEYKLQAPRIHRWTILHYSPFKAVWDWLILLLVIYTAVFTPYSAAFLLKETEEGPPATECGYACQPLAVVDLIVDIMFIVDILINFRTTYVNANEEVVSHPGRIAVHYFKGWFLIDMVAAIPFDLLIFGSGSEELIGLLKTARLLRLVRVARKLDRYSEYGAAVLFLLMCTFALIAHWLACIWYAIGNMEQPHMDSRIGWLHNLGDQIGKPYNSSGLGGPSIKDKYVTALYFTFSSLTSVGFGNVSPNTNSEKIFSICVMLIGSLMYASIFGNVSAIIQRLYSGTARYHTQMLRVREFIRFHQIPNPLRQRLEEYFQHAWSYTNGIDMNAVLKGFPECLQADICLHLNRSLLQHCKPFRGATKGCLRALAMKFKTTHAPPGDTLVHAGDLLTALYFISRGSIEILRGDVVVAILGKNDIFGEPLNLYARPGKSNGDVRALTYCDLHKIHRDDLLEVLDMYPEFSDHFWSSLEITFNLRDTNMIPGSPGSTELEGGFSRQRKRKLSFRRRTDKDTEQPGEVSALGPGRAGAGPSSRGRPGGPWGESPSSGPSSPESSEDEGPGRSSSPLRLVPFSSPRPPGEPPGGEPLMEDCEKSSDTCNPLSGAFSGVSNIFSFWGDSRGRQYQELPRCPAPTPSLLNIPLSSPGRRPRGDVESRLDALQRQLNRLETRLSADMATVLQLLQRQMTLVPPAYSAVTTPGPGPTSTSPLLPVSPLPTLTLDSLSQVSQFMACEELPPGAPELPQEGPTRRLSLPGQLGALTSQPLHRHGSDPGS
Chain of Cytochrome P450 2D6 (P10635 whole entry): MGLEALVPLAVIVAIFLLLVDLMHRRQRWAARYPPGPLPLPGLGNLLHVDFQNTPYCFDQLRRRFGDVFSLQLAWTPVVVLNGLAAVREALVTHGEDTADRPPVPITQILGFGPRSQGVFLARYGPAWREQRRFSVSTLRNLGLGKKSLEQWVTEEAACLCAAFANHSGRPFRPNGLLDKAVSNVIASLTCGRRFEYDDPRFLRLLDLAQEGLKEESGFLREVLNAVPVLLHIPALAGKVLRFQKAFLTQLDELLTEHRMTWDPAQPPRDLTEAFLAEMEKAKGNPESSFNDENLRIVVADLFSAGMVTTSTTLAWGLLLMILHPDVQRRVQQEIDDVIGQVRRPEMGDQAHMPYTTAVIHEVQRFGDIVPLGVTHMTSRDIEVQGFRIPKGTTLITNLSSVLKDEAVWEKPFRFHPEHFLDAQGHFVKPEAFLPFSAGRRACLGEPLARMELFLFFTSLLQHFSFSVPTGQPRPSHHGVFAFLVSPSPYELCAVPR

SMILES | Time [1] | Kp at 1 h [2] | Activity [3] | Time [4] | Time [5] | Activity [6] | Time [7] | Time [8] | concentration at 1 h [9] | Time [10] | Ki [11] | Time [12] | Activity [13] | Time [14] | Activity [15] | Activity [16] | Time [17] | inhibition (INH) [18] | Time [19] | Activity [20] | also measured
O=S(=O)(c1cncc2ccccc12)N1CCC[C@H]1CCN1CCN(c2cccc3sccc23)CC1 | 64.2 ms | 2.13 | 263 min⁻¹ | 265 ms | 262.8 ms | 256 min⁻¹ | 219.8 ms | 265.6 ms | 89.3 nM | 267 ms | 0.018 µM | 124.8 ms | 276 min⁻¹ | 30.4 ms | 286 min⁻¹ | 270 min⁻¹ | 124.6 ms | Not Active | 231.2 ms | 263 min⁻¹ | concentration at 1 h [21]: 45 nM; Time [22]: 220 ms; Time [23]: 266.6 ms; Time [24]: 62.8 ms; Time [25]: 268 ms; Time [26]: 63.8 ms; IC50 [27]: > 100 µM; Time [28]: 214.8 ms; Time [29]: 31.6 ms; inhibition [30]: 14%
O=S(=O)(c1cncc2ccccc12)N1CCC[C@H]1CCN1CCN(c2nsc3ccccc23)CC1 | 60.8 ms | 0.96 | 288 min⁻¹ | 269.6 ms | 280.6 ms | 296 min⁻¹ | 210.4 ms | 274.6 ms | 49.4 nM | 272.2 ms | 0.037 µM | 121.6 ms | 288 min⁻¹ | 27.2 ms | 284 min⁻¹ | 288 min⁻¹ | 125.8 ms | Active | 206 ms | 304 min⁻¹ | concentration at 1 h [21]: 50.2 nM; Time [22]: 210.6 ms; Time [23]: 275.8 ms; Time [24]: 59 ms; Time [25]: 273.4 ms; Time [26]: 59.6 ms; IC50 [27]: > 100 µM; Time [28]: 211.4 ms; Time [29]: 27 ms; Kb [30]: 0.003 µM
